Assay results reported in PubChem BioAssay AID1963441 (Molecular Pharmacology Branch, DTP, NCI, 2024).
Several values for one entry are separate records, joined by “and”; a condition that tells them apart may be missing. Equal values may be shown once.

Tested on: NCI-H1876 complex spheroid growth, % test/control
Test: Anticancer human tumor NCI-H1876 cell line growth inhibition [Asc];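 further: compound exposure lasted 7 days starting three days after seeding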;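 on viability, T/C: 100% = DMSO vehicle control wells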
Details: for viability, T/C: stronger effect = lower value; active means viability on the fitted dose curve at most 10% of control; inactive means the rest
Outline: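 Stromal components (HUVEC and hMSC) are co-assembled with the cancer cells into multicellular spheroids. Drugs are then added singly or paired, at concentrations falling by half-log increments from a clinically achievable maximum, capped at 10 microM without known Cmax.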

Cc1nc(N2CCC3(CC2)COC(C)C3N)c(CO)nc1Sc1ccnc(N)c1Cl (centres undefined) + CCN1C(C(=O)NC23CCC(C(=O)O)(CC2)CC3)C(c2cccc(Cl)c2F)C2(C(=O)Nc3cc(Cl)ccc32)C12CCCCC2
inactive: viability, T/C (second compound 0.00949 µM, first compound 0.00949 µM) 89.1% | viability, T/C (second compound 0.00949 µM, first compound 0.03 µM) 90% | viability, T/C (second compound 0.00949 µM, first compound 0.0949 µM) 92.1% | viability, T/C (second compound 0.00949 µM, first compound 0.3 µM) 102% | viability, T/C (second compound 0.00949 µM, first compound 0.949 µM) 91.6% | viability, T/C (second compound 0.00949 µM, first compound 3 µM) 77.5% | viability, T/C (second compound 0.03 µM, first compound 0.00949 µM) 99.6% | viability, T/C (second compound 0.03 µM, first compound 0.03 µM) 104% | viability, T/C (second compound 0.03 µM, first compound 0.0949 µM) 118% | viability, T/C (second compound 0.03 µM, first compound 0.3 µM) 93.5% | viability, T/C (second compound 0.03 µM, first compound 0.949 µM) 92.4% | viability, T/C (second compound 0.03 µM, first compound 3 µM) 80.2% | viability, T/C (second compound 0.0949 µM, first compound 0.00949 µM) 103% | viability, T/C (second compound 0.0949 µM, first compound 0.03 µM) 113% | viability, T/C (second compound 0.0949 µM, first compound 0.0949 µM) 94.3% | viability, T/C (second compound 0.0949 µM, first compound 0.3 µM) 92.4% | viability, T/C (second compound 0.0949 µM, first compound 0.949 µM) 93.9% | viability, T/C (second compound 0.0949 µM, first compound 3 µM) 87.3% | viability, T/C (second compound 0.3 µM, first compound 0.00949 µM) 109% | viability, T/C (second compound 0.3 µM, first compound 0.03 µM) 104% | viability, T/C (second compound 0.3 µM, first compound 0.0949 µM) 93.4% | viability, T/C (second compound 0.3 µM, first compound 0.3 µM) 99.5% | viability, T/C (second compound 0.3 µM, first compound 0.949 µM) 88.7% | viability, T/C (second compound 0.3 µM, first compound 3 µM) 88.7% | viability, T/C (second compound 0.949 µM, first compound 0.00949 µM) 108% | viability, T/C (second compound 0.949 µM, first compound 0.03 µM) 106% | viability, T/C (second compound 0.949 µM, first compound 0.0949 µM) 103% | viability, T/C (second compound 0.949 µM, first compound 0.3 µM) 109% | viability, T/C (second compound 0.949 µM, first compound 0.949 µM) 105% | viability, T/C (second compound 0.949 µM, first compound 3 µM) 87% | viability, T/C (second compound 3 µM, first compound 0.00949 µM) 108% | viability, T/C (second compound 3 µM, first compound 0.03 µM) 97.9% | viability, T/C (second compound 3 µM, first compound 0.0949 µM) 74% | viability, T/C (second compound 3 µM, first compound 0.3 µM) 90.3% | viability, T/C (second compound 3 µM, first compound 0.949 µM) 90.1% | viability, T/C (second compound 3 µM, first compound 3 µM) 67%
> 3 µM: IC50 (curve of first compound, second compound 0.00949 µM) | IC50 (curve of first compound, second compound 0.03 µM) | IC50 (curve of first compound, second compound 0.0949 µM) | IC50 (curve of first compound, second compound 0.3 µM) | IC50 (curve of first compound, second compound 0.949 µM) | IC50 (curve of first compound, second compound 3 µM)

C#Cc1c(F)ccc2cc(O)cc(-c3ncc4c(N5CC6CCC(C5)N6)nc(OCC56CCCN5CC(F)C6)nc4c3F)c12 (centres undefined)
inactive: viability, T/C (compound 0.0316 µM) 104% (2×) and 97.2% | viability, T/C (compound 0.1 µM) 82.3% and 98.9% and 99.3% | viability, T/C (compound 0.316 µM) 112% and 115% and 94.7% | viability, T/C (compound 1 µM) 92.9% and 80.2% and 91% | viability, T/C (compound 3.16 µM) 90.2% and 97.4% and 102% | viability, T/C (compound 10 µM) 89.6% (2×) and 88.2%
> 10 µM: IC50 (curve of compound)
